In this assay the test system is PAO1ΔpslA (Psl deletion mutant). Nature of the assay: Biofilm inhibition assay (OD600 growth and resazurin biofilm viability). It is filed as cell-based, Pseudomonas aeruginosa. How it is done: Figure 2 Biofilm assays to identify compounds that prevent biofilm formation. Biofilm inhibition assay. P. aeruginosa cultures were seeded into 384-well plates after dispensing compounds and antibiotics. The plates were incubated for 24 h at 37 °C followed by recording bacterial growth (OD600) and measuring the viability of biofilm bacteria using resazurin.
The overnight cultures at 37 °C in LB medium were washed once with sterile saline 0.9% (w/v) and adjusted to an OD600 of 0.05, and 1% inoculum was transferred into a fresh LB medium. Following incubation at 37 °C, 200 rpm for 6–6.5 h to reach the mid-log phase, the cells were washed once with sterile saline 0.9% and diluted to an OD600 of 0.01. Then, 45 µL aliquots were dispensed into 384-well plates (Greiner Bio-One, Kremsmünster, Austria, catalog no. 781091). In biofilm inhibition assays, test compounds (5 µL) were loaded prior to the addition of bacteria. The plates were incubated for 24 h at 37 °C in static conditions. The effects of compounds on bacterial growth and viability of biofilm bacteria were determined by the OD600 and resazurin metabolic assay, respectively. The final concentrations of DMSO in the assays were 1–2%. The negative controls or untreated cultures consisted of inoculum and different concentrations of DMSO. Antibiotic ciprofloxacin (0.25 µg/mL and 25 µg/mL) was used as positive controls. The initial OD600 and final OD600 were read before incubation at 37 °C and after 24 h incubation, respectively, followed by assessment of biofilm viability by resazurin metabolic assay. The experiments were carried out with three technical replicates and repeated at least twice. The growth inhibition was calculated as a function of the percentage of the total bacterial inhibition using Equation (1), where AB is the OD600 of LB medium, and AT0 and ATf are the OD600 recorded at inoculating time and at the end of the assay. (1) % Inhibition=100 × [ 1 − [OD600 (Asample Tf− Asample T0)−(AB Tf − AB T0)/OD600 (Anegative control Tf− Anegative control T0)−(AB Tf − AB T0)]]
Resazurin sodium salt (Sigma-Aldrich, St. Louis, MI, USA) was dissolved in Milli-Q water at 0.2% (w/v) and filter sterilized. The solution was stored at −20 °C in the dark. The assay was performed as previously described with modification. The cultures were withdrawn, and the plates were washed three times with sterile water using the plate washer (BioTek). To remove the remaining water in the wells, the plates were tapped with autoclaved paper towels. An amount of 50 µL of diluted RSZ solution in LB medium was added into each well, followed by incubation at 37 °C for 5–6 h. A microplate reader (BioTek Synergy 2) was used to measure the fluorescence intensity (excitation 530 nm, emission 590 nm). Data collected were determined as a function of fluorescence percentage using Equation (2), where FB is the fluorescence of the diluted RSZ solution in LB medium in the absence of P. aeruginosa cells. (2) % Inhibition=[(Fnegative control −FB )−(Fsample −FB )/(Fnegative control − FB )]×100
On the technique in general: Resazurin is reduced to fluorescent resorufin, in cell work by metabolically active cells.

Consider `COc1c(Br)cc(/C=C/C(=O)NCCCNCCCCNCCCNC(=O)/C=C/c2cc(Br)c(OC)c(Br)c2)cc1Br` [Compound 3, ianthelliformisamine C], for which, for the setting “compound 53.1 µg/mL”, the “synergistic interaction with ciprofloxacin, planktonic forms and biofilms” value is reported as “negligible synergistic interactions”. Where the note is “compound 106.2 µg/mL + sub-lethal doses of ciprofloxacin”, the biofilm inhibition is listed as ~ 100%. Under “compound alone 106.2 µg/mL”, the “killing of planktonic and biofilm populations” value was “completely killed”; the planktonic growth inhibition result is “independently inhibited planktonic growth”.
For the compound `COc1c(Br)cc(/C=C/C(=O)NCCCNCCCCN)cc1Br` [Compound 2, ianthelliformisamine B], the interaction with ciprofloxacin result (ciprofloxacin 1/3 and 1/4 MIC) is reported as “no synergistic interaction”. In addition, for the setting “compound alone”, the “effect on growth and biofilm formation” value is “marginal effects”.

The values above are taken from PMC10299588, “Bromotyrosine-Derived Metabolites from a Marine Sponge Inhibit Pseudomonas aeruginosa Biofilms” (International Journal of Molecular Sciences, 2023).
